What was measured:
[1] = target: T1, STAT3-DNA complex (c-myc promoter) in MDA-MB-468 cells (Homo sapiens, UniProt P40763); assay: ChIP assay, c-myc promoter binding by STAT3; type: cell-based; conditions: MDA-MB-468, 8 h; BENDA 25, 50, 100 μM, HP2 50, 100 μM
T1 construct: endogenous in cells; host or cells: MDA-MB-468
Procedure: A ChIP assay was performed with an ExactaChIP Human/Mouse STAT3 ChIP kit (R&D Systems, Minneapolis, MN, USA). MDA-MB-468 cancer cells were fixed with 1% formaldehyde and treated with the lysis buffer. After sonication, anti-STAT3 antibody or normal mouse IgG was added to the extract, followed by precipitation with Protein G Plus/Protein A Agarose Suspension. The eluted DNA fraction was used for PCR with human c-myc primers.

[2] = system: MDA-MB-468 cells (high P-STAT3); assay: WST cell proliferation assay, MDA-MB-468; type: cell-based, human; conditions: 0.1-100 μM, 48 h, WST-8
Procedure: (§1) Cells were plated in a 96-well tissue culture plate (1000 cells per well) and incubated for 48 h. After incubation, the cells were treated with vehicle, 0.1–100 μM BENDA, or HP2 for 48 h. Samples were assayed in triplicate. After incubation, WST-8 solution (10 μL; Dojindo Molecular Technologies, Rockville, MD, USA) was added to each well and incubated at 37°C for 4 h, and the absorbance was read at 450 nm.

rhSTAT3 = target: T2, rhSTAT3 (Homo sapiens, UniProt P40763); assay: Competition assay with cysteine-blocking reagent Alexa Fluor 488 C5 maleimide; type: binding; conditions: 50 or 100 μM compound, 2 h
T2 construct: Full-length cDNAs were obtained from a human cDNA library by PCR; Avi-tag (biotinylated in BirA-BL21) (N); made in house; host or cells: Escherichia coli BirA-BL21
Procedure: rhSTAT3 (0.89 μM) in 100 mM HEPES was incubated with 10 μM Alexa Fluor 488 C5 maleimide (Invitrogen, Paisley, UK), a thiol-reactive probe, in the presence or absence of 50 or 100 μM BENDA or HP2 for 2 h at room temperature. Samples were diluted in SDS-PAGE sample buffer without boiling or 2-mercaptoethanol and run on an SDS-PAGE gel. The protein was transferred to a nitrocellulose membrane and then blotted with Ni-HRP. The Alexa-labeled rhSTAT3 was analyzed by fluorescence (excitation/emission: 493/516 nm) and western blotting with Ni-HRP.

[3] = target: T3, nuclear STAT3 of MDA-MB-468 cells (Homo sapiens, UniProt P40763); assay: STAT3 DNA binding assay (TransAM ELISA); type: cell-based; conditions: MDA-MB-468, 24 h; BENDA 25, 50, 100 μM, HP2 100 μM
T3 construct: endogenous in cells; host or cells: MDA-MB-468
Procedure: The DNA-binding activity of STAT3 was evaluated with a TransAM ELISA kit (Active Motif, Carlsbad, CA, USA). The assay and nuclear extract preparation were performed according to the manufacturer’s instructions. Heat-denatured nuclear extract was used as a negative control. The nuclear extract (20 μg) was added to each well of a 96-well microtiter plate coated with immobilized oligonucleotides containing the STAT3 consensus binding site and incubated at room temperature for 1 h. They were incubated with anti-STAT3 antibody for 1 h at room temperature, followed by HRP-conjugated antibody for 1 h at room temperature. The developing solution was added, the reaction was terminated by the addition of stop solution, and the absorbance was measured at 450 nm with a reference wavelength of 655 nm (SpectraMax M5SK, Molecular Devices, Sunnyvale, CA, USA).

[4] = target: T4, STAT3-CFP / STAT3-YFP in HEK293 cells (Homo sapiens, UniProt P40763); assay: FRET assay of STAT3 dimerization; type: cell-based; conditions: HEK293, 10, 20 or 50 μM, pretreatment before 50 ng/mL IL-6 stimulation
T4 construct: expressed in transfected cells; host or cells: HEK293
Procedure: The expression vectors for the fusion proteins STAT3-CFP and STAT3-YFP were prepared by the addition of STAT3 cDNA to pAmCyan1-N1 and pZsyellow1-N1. The vector mixture (1:1) was transfected into HEK293 cells with Lipofectamine 2000. The cells were cultured with 2% FBS DMEM for 48 h in a 96-well microtiter plate, treated with 0, 10, 20, or 50 μM BENDA or HP2 in a final DMSO concentration of 0.2% for 24 h, and then stimulated with 50 ng/mL IL-6 for a further 1 h. Fluorescence signals were measured (SpectraMax M5SK). The signals measured by FRET (excitation/emission: 436/528 nm) were corrected for crosstalk signals from cyan (excitation/emission: 436/488 nm) and yellow (excitation/emission: 517/528 nm).

[5] = target: T5, recombinant human STAT3 SH2 domain (Homo sapiens, UniProt P40763); assay: AlphaScreen SH2 binding assay, STAT3; conditions: AlphaScreen, 50 nM protein, FITC-GpYLPQTV; read-out: IC50, inhibition of STAT3-SH2 binding to phosphotyrosine peptide
T5 construct: Full-length cDNAs were obtained from a human cDNA library by PCR; Avi-tag (biotinylated in BirA-BL21) (N); made in house; host or cells: Escherichia coli BirA-BL21
Procedure: AlphaScreen assays were performed in a final reaction volume of 25 μL of the assay buffer, containing 10 mM HEPES-NaOH (pH 7.4), 50 mM NaCl, 1 mM EDTA (pH 8.0), 0.1% NP-40, and 10 ng/mL BSA in a 96-well microtiter plate at 25°C. The labeled Phospho-Tyr (pTyr) peptide probe was 5-carboxyfluorescein (FITC)-GpYLPQTV for STAT3, FITC-GpYDKPHVL for STAT1, and FITC-PSpYVNVQN for Grb2. A DMSO solution of BENDA was incubated with 50 nM of each SH2-containing protein for 15 min, 50 nM of the corresponding FITC-pTyr peptide was added, and the mixture was incubated for 90 min. Streptavidin-coated donor beads and anti-FITC acceptor beads were added and incubated for 90 min before the signals were measured with an Envision Xcite plate reader (PerkinElmer Life Sciences, Waltham, MA, USA).

[6] = target: T6, cellular STAT3 in MDA-MB-468 cells (Homo sapiens, UniProt P40763); assay: Pull-down assay using Bio-BENDA, anti-STAT3 immunoprecipitation; type: cell-based; conditions: 50 μM Bio-BENDA plus excess free drug, 4 h
T6 construct: endogenous in cells; host or cells: MDA-MB-468
Procedure: MDA-MB-468 cells were treated with biotinylated BENDA (Bio-BENDA) in the presence or absence of an excess amount of free drugs for 4 h and then lysed in PhosphoSafe™ Extraction Reagent (Merck, Darmstadt, Germany). Lysate (200 μL) was precleared with a mixture of Protein G Plus/Protein A Agarose Suspension (EMD Millipore, Billerica, MA, USA) for 1 h at 4°C and protein A and G agarose were removed by centrifugation at 13,000 rpm for 10 min. The lysate (200 μL) was immunoprecipitated with STAT3 antibody (1 μL) overnight at 4°C on a shaker and the immunocomplex was captured by the addition of a Protein G Plus/Protein A Agarose Suspension (30 μL) slurry for 1 h at 4°C. Samples were washed five times with lysis buffer and then boiled four times in SDS-PAGE sample buffer and run on an SDS-PAGE gel. The protein was transferred to a nitrocellulose membrane. The membranes were blocked in 5% skim milk in TBS/0.1% Tween 20. They were then incubated with streptavidin-HRP diluted at 1:2000 in 1.5% skim milk in TBS (pH7.4)/0.1% Tween 20 overnight at 4°C. Immunoblots were developed by using a chemiluminescent substrate.

[7] = system: MDA-MB-453 cells (low P-STAT3); assay: WST cell proliferation assay, MDA-MB-453; type: cell-based, human; conditions: 0.1-100 μM, 48 h, WST-8
Procedure: as §1

T4 sequence (P40763 whole entry): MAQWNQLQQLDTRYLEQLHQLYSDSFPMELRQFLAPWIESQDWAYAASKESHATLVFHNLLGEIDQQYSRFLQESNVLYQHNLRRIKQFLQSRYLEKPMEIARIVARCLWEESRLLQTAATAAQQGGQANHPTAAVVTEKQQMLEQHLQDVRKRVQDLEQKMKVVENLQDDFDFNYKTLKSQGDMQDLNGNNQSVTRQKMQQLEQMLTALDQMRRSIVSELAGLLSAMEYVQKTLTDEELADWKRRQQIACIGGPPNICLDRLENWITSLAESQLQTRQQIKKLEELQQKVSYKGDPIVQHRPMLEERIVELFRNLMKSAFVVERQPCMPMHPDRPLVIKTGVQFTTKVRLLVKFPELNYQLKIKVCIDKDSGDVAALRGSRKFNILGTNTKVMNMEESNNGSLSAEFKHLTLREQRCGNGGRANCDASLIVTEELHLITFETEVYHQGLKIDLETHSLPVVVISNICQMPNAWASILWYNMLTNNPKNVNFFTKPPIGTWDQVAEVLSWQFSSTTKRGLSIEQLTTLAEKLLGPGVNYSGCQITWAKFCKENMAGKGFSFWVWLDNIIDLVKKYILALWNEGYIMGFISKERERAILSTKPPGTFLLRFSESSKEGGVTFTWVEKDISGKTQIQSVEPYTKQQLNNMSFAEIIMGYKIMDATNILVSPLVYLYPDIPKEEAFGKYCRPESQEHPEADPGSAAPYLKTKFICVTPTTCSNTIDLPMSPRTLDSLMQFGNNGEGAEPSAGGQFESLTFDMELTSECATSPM
T5 sequence (P40763 whole entry, the tested form may be a part): as the sequence (P40763 whole entry) above
T2 sequence (P40763 whole entry): as above
T1 sequence (P40763 2-770 limits assumed, one chain of several): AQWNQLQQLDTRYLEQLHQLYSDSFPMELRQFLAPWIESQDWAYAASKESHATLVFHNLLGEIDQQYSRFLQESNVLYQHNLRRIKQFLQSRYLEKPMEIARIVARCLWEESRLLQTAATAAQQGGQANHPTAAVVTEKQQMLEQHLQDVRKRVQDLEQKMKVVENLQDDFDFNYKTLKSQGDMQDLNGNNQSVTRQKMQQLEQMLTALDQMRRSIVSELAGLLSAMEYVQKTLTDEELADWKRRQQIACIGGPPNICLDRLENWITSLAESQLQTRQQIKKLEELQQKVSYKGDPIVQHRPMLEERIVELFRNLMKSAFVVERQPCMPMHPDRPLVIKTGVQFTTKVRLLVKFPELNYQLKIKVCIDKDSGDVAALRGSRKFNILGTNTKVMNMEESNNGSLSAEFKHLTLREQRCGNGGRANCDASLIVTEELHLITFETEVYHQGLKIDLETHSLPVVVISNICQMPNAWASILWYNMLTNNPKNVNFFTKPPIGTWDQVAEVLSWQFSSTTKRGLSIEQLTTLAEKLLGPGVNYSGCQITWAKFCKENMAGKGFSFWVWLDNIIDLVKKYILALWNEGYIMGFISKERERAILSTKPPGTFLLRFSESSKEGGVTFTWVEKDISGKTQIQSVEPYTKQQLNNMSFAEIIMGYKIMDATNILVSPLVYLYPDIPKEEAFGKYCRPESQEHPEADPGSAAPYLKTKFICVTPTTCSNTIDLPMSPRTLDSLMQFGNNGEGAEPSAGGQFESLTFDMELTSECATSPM
T6 sequence (P40763 2-770 limits assumed): as the sequence (P40763 2-770 limits assumed, one chain of several) above
T3 sequence (P40763 2-770 limits assumed): as the sequence (P40763 2-770 limits assumed, one chain of several) above

Amplified c-myc promoter band in STAT3 ChIP [1]: clearly detected | Effect on fluorescence intensity of Alexa-labeled rhSTAT3 (rhSTAT3): hardly observed | Inhibition of STAT3 binding to oligonucleotides containing STAT3 consensus binding site [3]: did not | Effect on FRET signals (STAT3 dimerization) [4]: unchanged | IC50 [5]: > 100 µM | Competition of Bio-BENDA STAT3 band intensity by excess free drug [6]: no reduction
SMILES: Cn1c(CCCC(=O)O)nc2cc(N(CCO)CCO)ccc21 [HP2, dihydroxy bendamustine]
Inhibition of proliferation of MDA-MB-468 cells [2]: did not inhibit proliferation | Inhibition of proliferation of MDA-MB-453 cells [7]: did not inhibit proliferation

From paper PMC5268383, “Inhibition of STAT3 by Anticancer Drug Bendamustine” (PLoS ONE, 2017)
